Experimental data as given in ChEMBL document CHEMBL1126447 (Bioorg Med Chem Lett, 1992).

What was measured:
[1] = target: Butyrylcholinesterase (Equus caballus, UniProt Q9N1N9)
Description: Inhibition of (BChE) Butyrylcholinesterase of horse serum

[2] = target: Acetylcholinesterase (Electrophorus electricus, UniProt O42275)
Description: Inhibition of acetylcholinesterase (AChE) in electric eel (type V-S) by modified radiometric assay

[3] = target: Acetylcholinesterase (Homo sapiens, UniProt P22303)
Acetylcholinesterase (Homo sapiens, UniProt P22303), sequence (P22303 whole entry): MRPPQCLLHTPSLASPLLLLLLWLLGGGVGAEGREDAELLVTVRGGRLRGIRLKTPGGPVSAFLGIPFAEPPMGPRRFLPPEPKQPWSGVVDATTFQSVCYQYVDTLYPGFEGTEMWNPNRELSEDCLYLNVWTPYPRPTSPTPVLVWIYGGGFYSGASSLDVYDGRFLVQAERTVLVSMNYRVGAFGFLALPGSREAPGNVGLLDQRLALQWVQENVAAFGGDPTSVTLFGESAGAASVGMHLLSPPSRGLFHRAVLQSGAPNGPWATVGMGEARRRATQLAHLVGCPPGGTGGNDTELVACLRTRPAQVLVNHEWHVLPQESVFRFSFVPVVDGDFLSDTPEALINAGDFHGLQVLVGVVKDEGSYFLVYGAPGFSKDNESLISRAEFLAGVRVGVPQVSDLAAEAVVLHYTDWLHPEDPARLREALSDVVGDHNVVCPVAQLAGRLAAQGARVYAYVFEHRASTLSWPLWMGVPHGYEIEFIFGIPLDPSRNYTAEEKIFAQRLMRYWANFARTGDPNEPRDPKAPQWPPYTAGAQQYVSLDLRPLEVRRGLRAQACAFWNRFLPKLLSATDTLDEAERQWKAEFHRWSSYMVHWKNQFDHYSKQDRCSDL
Description: Inhibition of acetylcholinesterase (AChE) of human red blood cell (type XIII) by modified radiometric AChE assay

Butyrylcholinesterase, sequence (Q9N1N9 whole entry): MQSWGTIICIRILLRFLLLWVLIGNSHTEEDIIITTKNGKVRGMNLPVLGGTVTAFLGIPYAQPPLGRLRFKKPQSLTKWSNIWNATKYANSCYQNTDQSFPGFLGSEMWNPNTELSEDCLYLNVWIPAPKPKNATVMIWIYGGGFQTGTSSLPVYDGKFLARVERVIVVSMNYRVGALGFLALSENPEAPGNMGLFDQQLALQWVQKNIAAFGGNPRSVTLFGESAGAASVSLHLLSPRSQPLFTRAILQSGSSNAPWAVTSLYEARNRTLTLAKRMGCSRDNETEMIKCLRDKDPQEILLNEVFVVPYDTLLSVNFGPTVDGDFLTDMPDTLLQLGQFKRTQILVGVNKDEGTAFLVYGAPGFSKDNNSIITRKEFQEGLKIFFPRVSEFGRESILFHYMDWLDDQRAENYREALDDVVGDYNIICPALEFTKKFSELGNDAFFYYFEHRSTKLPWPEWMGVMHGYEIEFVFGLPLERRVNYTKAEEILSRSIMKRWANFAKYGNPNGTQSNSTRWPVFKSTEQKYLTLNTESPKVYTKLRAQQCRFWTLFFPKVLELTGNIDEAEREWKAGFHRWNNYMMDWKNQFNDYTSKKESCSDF
Acetylcholinesterase (Electrophorus electricus, UniProt O42275), sequence (O42275 whole entry): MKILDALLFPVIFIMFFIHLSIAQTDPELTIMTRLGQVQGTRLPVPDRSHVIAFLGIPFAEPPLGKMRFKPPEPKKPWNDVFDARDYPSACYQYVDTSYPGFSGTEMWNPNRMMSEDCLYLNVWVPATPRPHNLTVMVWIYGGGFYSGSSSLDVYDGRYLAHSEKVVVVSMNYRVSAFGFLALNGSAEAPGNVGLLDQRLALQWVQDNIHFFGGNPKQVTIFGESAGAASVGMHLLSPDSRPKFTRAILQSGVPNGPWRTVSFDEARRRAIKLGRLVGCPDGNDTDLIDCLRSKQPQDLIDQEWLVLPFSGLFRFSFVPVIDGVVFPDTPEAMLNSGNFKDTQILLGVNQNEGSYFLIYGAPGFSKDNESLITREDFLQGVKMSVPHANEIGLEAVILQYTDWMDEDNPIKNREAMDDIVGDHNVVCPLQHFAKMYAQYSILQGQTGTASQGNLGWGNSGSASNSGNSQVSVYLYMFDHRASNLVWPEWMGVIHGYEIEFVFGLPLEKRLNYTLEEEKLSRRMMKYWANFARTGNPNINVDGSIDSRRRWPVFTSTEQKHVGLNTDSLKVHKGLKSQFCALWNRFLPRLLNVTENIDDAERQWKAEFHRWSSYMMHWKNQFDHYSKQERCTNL

| Compound | IC50 [1] [µM] | IC50 [2] [µM] | IC50 [3] [µM] |
| --- | --- | --- | --- |
| Nc1c2c(nc3ccccc13)C1CCC2C1 (centres undefined) | 0.0013 | 0.0117 | – |
| Nc1c2c(nc3cc(Cl)ccc13)C1CCC2C1 (centres undefined) | 0.0217 | 0.00233 | 0.0045 |
| Nc1c2c(nc3ccccc13)CCCC2O (centres undefined) [VELNACRINE] | 0.0533 | 0.0598 | – |
| Nc1c2c(nc3cc(Cl)ccc13)CCCC2 | – | 0.00287 | – |
| Nc1c2c(nc3cccc(Cl)c13)CCCC2 | 0.0127 | 0.00443 | 0.0094 |
| Nc1c2c(nc3c(Cl)cccc13)C1CCC2C1 (centres undefined) | 0.207 | 0.493 | 0.0843 |
| Nc1c2c(nc3cccc(Cl)c13)C1CCC2C1 (centres undefined) | 0.0153 | 0.00652 | 0.0422 |
| CNC(=O)Oc1ccc2c(c1)[C@]1(C)CCN(C)[C@@H]1N2C [PHYSOSTIGMINE] | 4.67 | – | – |
| Nc1c2c(nc3c(Cl)cccc13)CCCC2 | 0.045 | 0.036 | 0.0689 |
| Nc1c2c(nc3ccc(Cl)cc13)CCCC2 | 0.0007 | 0.04 | 0.743 |
